Reference: PubChem BioAssay AID2060884 (Molecular Pharmacology Branch, DTP, NCI, 2025)

Tested on: NCI-H929 complex spheroids, viability % test/control
Assay: Anticancer human tumor NCI-H929 cell line growth inhibition [RAS];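 further: compound exposure lasted seven days before viability was read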;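 on viability, T/C: 100% = DMSO vehicle control viability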
Details: for IC50: curve of first compound; for viability, T/C: stronger effect = lower value
Method in brief: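 Tumour cells grown as complex spheroids with HUVEC endothelial cells and mesenchymal stem cells, treated with RAS pathway inhibitor combinations. Each agent spans half-log steps from near clinical Cmax, or 10 microM where Cmax is unknown.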

[1] = second compound 0.00316 µM, first compound 0.0316 µM
[2] = second compound 0.00316 µM, first compound 0.1 µM
[3] = second compound 0.00316 µM, first compound 0.316 µM
[4] = second compound 0.00316 µM, first compound 1 µM
[5] = second compound 0.00316 µM, first compound 3.16 µM
[6] = second compound 0.00316 µM, first compound 10 µM
[7] = second compound 0.01 µM, first compound 0.0316 µM
[8] = second compound 0.01 µM, first compound 0.1 µM
[9] = second compound 0.01 µM, first compound 0.316 µM
[10] = second compound 0.01 µM, first compound 1 µM
[11] = second compound 0.01 µM, first compound 3.16 µM
[12] = second compound 0.01 µM, first compound 10 µM
[13] = second compound 0.0316 µM, first compound 0.0316 µM
[14] = second compound 0.0316 µM, first compound 0.1 µM
[15] = second compound 0.0316 µM, first compound 0.316 µM
[16] = second compound 0.0316 µM, first compound 1 µM
[17] = second compound 0.0316 µM, first compound 3.16 µM
[18] = second compound 0.0316 µM, first compound 10 µM
[19] = second compound 0.1 µM, first compound 0.0316 µM
[20] = second compound 0.1 µM, first compound 0.1 µM
[21] = second compound 0.1 µM, first compound 0.316 µM
[22] = second compound 0.1 µM, first compound 1 µM
[23] = second compound 0.1 µM, first compound 3.16 µM
[24] = second compound 0.1 µM, first compound 10 µM
[25] = second compound 0.316 µM, first compound 0.0316 µM
[26] = second compound 0.316 µM, first compound 0.1 µM
[27] = second compound 0.316 µM, first compound 0.316 µM
[28] = second compound 0.316 µM, first compound 1 µM
[29] = second compound 0.316 µM, first compound 3.16 µM
[30] = second compound 0.316 µM, first compound 10 µM
[31] = second compound 1 µM, first compound 0.0316 µM
[32] = second compound 1 µM, first compound 0.1 µM
[33] = second compound 1 µM, first compound 0.316 µM
[34] = second compound 1 µM, first compound 1 µM
[35] = second compound 1 µM, first compound 3.16 µM
[36] = second compound 1 µM, first compound 10 µM

Compound: Cc1nc(N2CCC3(CC2)COC(C)C3N)c(CO)nc1Sc1ccnc(N)c1Cl (stereo unspecified) + C=CC(=O)N1CCN(c2nc(OCC3CCCN3C)nc3c(F)c(-c4nc(N)cc(C)c4C(F)(F)F)c(Cl)cc23)C(C)C1
- IC50 (second compound 0.00316 µM): > 10 µM
- IC50 (second compound 0.01 µM): > 10 µM
- IC50 (second compound 0.0316 µM): > 10 µM
- IC50 (second compound 0.1 µM): > 10 µM
- IC50 (second compound 0.316 µM): > 10 µM
- IC50 (second compound 1 µM): > 10 µM
- viability, T/C [1]: 97.9%
- viability, T/C [2]: 94.5%
- viability, T/C [3]: 97.1%
- viability, T/C [4]: 94.4%
- viability, T/C [5]: 101%
- viability, T/C [6]: 98.3%
- viability, T/C [7]: 95.8%
- viability, T/C [8]: 96%
- viability, T/C [9]: 99.8%
- viability, T/C [10]: 96.5%
- viability, T/C [11]: 101%
- viability, T/C [12]: 102%
- viability, T/C [13]: 95.7%
- viability, T/C [14]: 102%
- viability, T/C [15]: 100%
- viability, T/C [16]: 99.3%
- viability, T/C [17]: 102%
- viability, T/C [18]: 102%
- viability, T/C [19]: 95.6%
- viability, T/C [20]: 101%
- viability, T/C [21]: 100%
- viability, T/C [22]: 102%
- viability, T/C [23]: 104%
- viability, T/C [24]: 99.7%
- viability, T/C [25]: 101%
- viability, T/C [26]: 101%
- viability, T/C [27]: 103%
- viability, T/C [28]: 100%
- viability, T/C [29]: 102%
- viability, T/C [30]: 104%
- viability, T/C [31]: 104%
- viability, T/C [32]: 105%
- viability, T/C [33]: 105%
- viability, T/C [34]: 105%
- viability, T/C [35]: 109%
- viability, T/C [36]: 103%

Compound: NC1c2ccccc2OC12CCN(c1cnc3c(N4CCCc5ncccc54)n[nH]c3n1)CC2 (stereo unspecified) + CCn1c(-c2cccnc2C(C)OC)c2c3cc(ccc31)N1CCOC(CC(NC(=O)C(C(C)C)N(C)C(=O)C3(F)CCN(C(=O)C#CC(C)(C)N(C)C)CC3)C(=O)N3CCCC(N3)C(=O)OCC(C)(C)C2)C1
- IC50 (second compound 0.000949 µM): > 10 µM
- IC50 (second compound 0.003 µM): > 10 µM
- IC50 (second compound 0.00949 µM): > 10 µM
- IC50 (second compound 0.03 µM): > 10 µM
- IC50 (second compound 0.0949 µM): 9.05 µM
- IC50 (second compound 0.3 µM): 8.98 µM
- viability, T/C (second compound 0.000949 µM, first compound 0.0316 µM): 103%
- viability, T/C (second compound 0.000949 µM, first compound 0.1 µM): 100%
- viability, T/C (second compound 0.000949 µM, first compound 0.316 µM): 103%
- viability, T/C (second compound 0.000949 µM, first compound 1 µM): 98.5%
- viability, T/C (second compound 0.000949 µM, first compound 3.16 µM): 94.5%
- viability, T/C (second compound 0.000949 µM, first compound 10 µM): 60.7%
- viability, T/C (second compound 0.003 µM, first compound 0.0316 µM): 103%
- viability, T/C (second compound 0.003 µM, first compound 0.1 µM): 96.5%
- viability, T/C (second compound 0.003 µM, first compound 0.316 µM): 102%
- viability, T/C (second compound 0.003 µM, first compound 1 µM): 97.7%
- viability, T/C (second compound 0.003 µM, first compound 3.16 µM): 95.7%
- viability, T/C (second compound 0.003 µM, first compound 10 µM): 58.5%
- viability, T/C (second compound 0.00949 µM, first compound 0.0316 µM): 101%
- viability, T/C (second compound 0.00949 µM, first compound 0.1 µM): 99.6%
- viability, T/C (second compound 0.00949 µM, first compound 0.316 µM): 101%
- viability, T/C (second compound 0.00949 µM, first compound 1 µM): 96.8%
- viability, T/C (second compound 0.00949 µM, first compound 3.16 µM): 93.2%
- viability, T/C (second compound 0.00949 µM, first compound 10 µM): 54.1%
- viability, T/C (second compound 0.03 µM, first compound 0.0316 µM): 97.7%
- viability, T/C (second compound 0.03 µM, first compound 0.1 µM): 96.9%
- viability, T/C (second compound 0.03 µM, first compound 0.316 µM): 99.8%
- viability, T/C (second compound 0.03 µM, first compound 1 µM): 99.7%
- viability, T/C (second compound 0.03 µM, first compound 3.16 µM): 90.9%
- viability, T/C (second compound 0.03 µM, first compound 10 µM): 54.2%
- viability, T/C (second compound 0.0949 µM, first compound 0.0316 µM): 99.1%
- viability, T/C (second compound 0.0949 µM, first compound 0.1 µM): 98.2%
- viability, T/C (second compound 0.0949 µM, first compound 0.316 µM): 93.6%
- viability, T/C (second compound 0.0949 µM, first compound 1 µM): 91.2%
- viability, T/C (second compound 0.0949 µM, first compound 3.16 µM): 86.5%
- viability, T/C (second compound 0.0949 µM, first compound 10 µM): 46.3%
- viability, T/C (second compound 0.3 µM, first compound 0.0316 µM): 95.7%
- viability, T/C (second compound 0.3 µM, first compound 0.1 µM): 99.6%
- viability, T/C (second compound 0.3 µM, first compound 0.316 µM): 99.5%
- viability, T/C (second compound 0.3 µM, first compound 1 µM): 93.2%
- viability, T/C (second compound 0.3 µM, first compound 3.16 µM): 76.8%
- viability, T/C (second compound 0.3 µM, first compound 10 µM): 47.2%

Compound: C[C@@H](NC(=O)c1ncnc(N)c1Cl)c1ncc(C(=O)Nc2cc(C(F)(F)F)c(Cl)cn2)s1 + C=CC(=O)N1CCN(c2nc(OCC3CCCN3C)nc3c(F)c(-c4nc(N)cc(C)c4C(F)(F)F)c(Cl)cc23)C(C)C1
- IC50 (second compound 0.00316 µM): > 10 µM
- IC50 (second compound 0.01 µM): > 10 µM
- IC50 (second compound 0.0316 µM): > 10 µM
- IC50 (second compound 0.1 µM): > 10 µM
- IC50 (second compound 0.316 µM): > 10 µM
- IC50 (second compound 1 µM): > 10 µM
- viability, T/C [1]: 106%
- viability, T/C [2]: 95.9%
- viability, T/C [3]: 101%
- viability, T/C [4]: 97.9%
- viability, T/C [5]: 101%
- viability, T/C [6]: 115%
- viability, T/C [7]: 91.8%
- viability, T/C [8]: 101%
- viability, T/C [9]: 92.3%
- viability, T/C [10]: 83.8%
- viability, T/C [11]: 91.2%
- viability, T/C [12]: 116%
- viability, T/C [13]: 95%
- viability, T/C [14]: 94.1%
- viability, T/C [15]: 93%
- viability, T/C [16]: 87.8%
- viability, T/C [17]: 100%
- viability, T/C [18]: 115%
- viability, T/C [19]: 85.9%
- viability, T/C [20]: 95.2%
- viability, T/C [21]: 104%
- viability, T/C [22]: 97.7%
- viability, T/C [23]: 103%
- viability, T/C [24]: 114%
- viability, T/C [25]: 99.6%
- viability, T/C [26]: 102%
- viability, T/C [27]: 102%
- viability, T/C [28]: 95%
- viability, T/C [29]: 97.3%
- viability, T/C [30]: 117%
- viability, T/C [31]: 110%
- viability, T/C [32]: 101%
- viability, T/C [33]: 103%
- viability, T/C [34]: 108%
- viability, T/C [35]: 103%
- viability, T/C [36]: 111%
